# Results from patent US10669266B2, “Oxadiazole inhibitors of HIPK2 for treating kidney fibrosis” (ICAHN SCHOOL OF MEDICINE AT MOUNT SINAI, priority 2017, dated 2020).
# Read-outs that look alike come from different tables or passages of the source.
# Legend:
# [1] = test system: Smad3-responsive luciferase reporter (SBE4-Luc); details: for suppression of Smad3 reporter activity, inhibition compared to DMSO control: absence of TGF-β1 stimulation
# Description: Human primary tubular cells (PromoCell GmbH, Heidelberg, Germany) were cultured in Renal Epithelial Cell Growth Medium-2 (Promocell GmbH) with supplements according to manufacturer's protocol human primary renal tubular epithelial cells with <5 passages were used for all studies. For HIV infection of hRTECs, pNL4-3:ΔG/P-EGFP, a gag/poi-deleted HIV-1 construct that contains EGFP in the gag open reading frame, and pHR-IRES-EGFP, a control EGFP construct, were used to generate the VSV-G pseudotyped virus. Cells were infected with HIV pseudotyped virus or control virus for 2 days before the treatment with test compound.
# Forty-eight hours post-transfection cells were treated with assigned concentrations of test compound together with or without 10 ng/ml TGF-β1 for 16 hours. Luciferase activities were measured using the Dual-Luciferase Reporter Assay kit (Promega, #E1910). Data are expressed as the ratio of firefly luciferase activity over Renilla luciferase activity. […] 48 hours after transfection, luciferase activities were measured.
# [2] = target: HIPK2 (Homo sapiens, UniProt Q9H2X6); assay: Drug affinity responsive target stability (DARTS) with pronase in 293T lysates; format: binding; set-up: endogenous in cells; host or cells: HEK 293T cell lysate; details: 1:10,000 pronase/cell lysate ratio
# Chain of HIPK2 (Q9H2X6 whole entry): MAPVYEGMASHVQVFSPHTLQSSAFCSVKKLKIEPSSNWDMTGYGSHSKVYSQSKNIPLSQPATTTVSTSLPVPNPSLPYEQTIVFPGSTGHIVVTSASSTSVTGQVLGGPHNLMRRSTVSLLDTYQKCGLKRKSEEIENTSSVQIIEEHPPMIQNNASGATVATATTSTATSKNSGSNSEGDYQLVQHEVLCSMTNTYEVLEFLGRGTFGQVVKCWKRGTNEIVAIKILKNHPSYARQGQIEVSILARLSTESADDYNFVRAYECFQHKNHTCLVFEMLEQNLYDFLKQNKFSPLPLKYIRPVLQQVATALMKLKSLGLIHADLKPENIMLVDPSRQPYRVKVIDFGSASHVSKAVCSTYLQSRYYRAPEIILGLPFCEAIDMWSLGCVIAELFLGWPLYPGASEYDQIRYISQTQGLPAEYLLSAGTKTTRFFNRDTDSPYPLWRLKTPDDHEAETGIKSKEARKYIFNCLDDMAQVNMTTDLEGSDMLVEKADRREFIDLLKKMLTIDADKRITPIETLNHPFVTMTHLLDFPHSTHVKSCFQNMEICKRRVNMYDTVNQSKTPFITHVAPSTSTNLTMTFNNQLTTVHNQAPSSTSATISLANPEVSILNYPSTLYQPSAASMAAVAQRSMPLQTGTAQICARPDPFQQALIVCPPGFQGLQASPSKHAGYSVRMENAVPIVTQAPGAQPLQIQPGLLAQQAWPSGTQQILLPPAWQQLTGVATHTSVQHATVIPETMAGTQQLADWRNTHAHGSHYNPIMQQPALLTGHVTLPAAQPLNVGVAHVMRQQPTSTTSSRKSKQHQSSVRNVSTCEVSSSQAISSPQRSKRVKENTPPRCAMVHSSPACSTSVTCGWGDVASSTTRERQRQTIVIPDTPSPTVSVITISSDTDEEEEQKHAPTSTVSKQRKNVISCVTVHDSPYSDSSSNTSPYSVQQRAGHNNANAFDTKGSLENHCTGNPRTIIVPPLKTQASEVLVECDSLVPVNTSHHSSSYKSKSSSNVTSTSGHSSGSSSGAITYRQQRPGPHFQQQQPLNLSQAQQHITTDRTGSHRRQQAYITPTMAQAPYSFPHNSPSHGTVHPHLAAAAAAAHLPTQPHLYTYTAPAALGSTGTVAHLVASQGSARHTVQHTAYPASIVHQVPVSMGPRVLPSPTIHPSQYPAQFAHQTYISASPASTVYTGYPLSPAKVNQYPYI
# Description: Drug affinity responsive target stability (DARTS) method was used to identify protein targets of test compound as described previously by Pai et al. [Methods Mol Biol, 1263: 287-298, 2015]. Briefly, 293T lysates were incubated with test compound at room temperature for 1 hour. After incubation, cell lysates were subjected to proteolysis with various concentrations of pronase (#10165921001, Roche) at room temperature for 20 minutes. Proteolysis was stopped by addition of 5× protein loading buffer and heating at 90° C. for 5 minutes. Protein samples were subjected to western blot analysis.
# Drug affinity responsive target stability (DARTS) has recently been developed to identify potential protein targets of small molecules. It is based on the principle that the binding of small molecule compound to the target protein changes the protein structure such that it can increase its stability and confer protection against proteolysis. In order to test whether compounds of the invention bind directly to HIPK2, we performed the DARTS experiments using pronase in presence of Example 1. […] Because HIPK2 abundance is quite low in many known cell types, we overexpressed His6-tagged HIPK2 in 293T cells for testing its interaction with the endogenous Smad3. The expression of His6-HIPK2 and Smad3 in 293T cells was confirmed by western blot. We pulled down His6-HIPK2 using cobalt beads and checked for the presence of Smad3 in cells treated with two different doses of Example 1.
# [3] = target: T1, HIPK2-Smad3 interaction (Homo sapiens, UniProt Q9H2X6); assay: His6-HIPK2 cobalt resin pull-down of endogenous Smad3 in 293T cells; format: cell-based; details: 293T cells overexpressing His6-HIPK2, two different doses
# T1 construct: host or cells: HEK 293T
# T1 sequence (Q9H2X6 whole entry): as above
# Description: 4×Smad binding element-driven firefly luciferase (SBE4-Luc) plasmid was purchased from Addgene (#16495). Renilla luciferase reporter plasmid (pRL) was purchased from Promega. Active domain deleted HIPK2 was previously described by Jin et al. [Nat Med, 18: 580-588]. The His6-HIPK2 construct was generated by PCR amplification of coding region using plasmid containing human HIPK2 gene (GeneCopoeia™) as the template.
# 293T cells were lysed in equilibration/wash buffer (50 mM sodium phosphate, 300 mM sodium chloride, 10 mM imidazole; pH 7.4) 48 hours after transfection of His6-tagged HIPK2 expression plasmid. Cleared cell lysate was incubated with HisPur Cobalt resin (Thermo Fisher Scientific, NY) on end-over-end rotator at 4° C. for 2 hours. After centrifugation (700×g, 2 min, 4° C.), the resin was washed 3 times in a wash buffer. The bound protein complexes were finally eluted with elution buffer (50 mM sodium phosphate, 500 mM sodium chloride, 150 mM imidazole; pH 7.4) and subjected to western blot analysis.
# Cells were lysed in M-PER mammalian protein extraction reagent (#78501, Thermo Fisher Scientific, NY) containing protease inhibitor cocktail (#11836153001, Roche) and phosphatase inhibitors (50 mM NaF, 10 mM β-glycerophosphate, 5 mM sodium pyrophosphate, 2 mM Na3VO4). Total protein concentration was measured using the Bradford reagent (#500-0006, Bio-Rad). […]
smiles,measurement,setting,value
"COc1ccc2cc(-c3nc(-c4ccc(Br)cc4)no3)cnc2c1 [Example 1, 3-(4-Bromophenyl)-5-(7-methoxyquinolin-3-yl)-1,2,4-oxadiazole]",Luciferase Activity (Relative to DMSO control) −TGFβ,[1],0.197
same,"suppression of Smad3 reporter activity, inhibition compared to DMSO control",[1]; 3.3 μm,~40%
same,"suppression of Smad3 reporter activity, inhibition compared to DMSO control",[1]; 10 μm,~70%
same,"SBE4-luciferase activity, inhibition compared to TGFβ1-treated only control","[1]; presence of TGF-β1, first of three tested doses",~40%
same,"SBE4-luciferase activity, inhibition compared to TGFβ1-treated only control","[1]; presence of TGF-β1, second of three tested doses",~60%
same,"SBE4-luciferase activity, inhibition compared to TGFβ1-treated only control","[1]; presence of TGF-β1, third of three tested doses",~75%
same,protection of HIPK2 from pronase digestion (DARTS),[2]; 30 μm,partial protection
same,protection of HIPK2 from pronase digestion (DARTS),[2]; 100 μm,complete protection
same,protection of HIPK2 from pronase degradation (DARTS),[2]; versus DMSO control,protected from degradation
same,interaction between Smad3 and HIPK2 (His6-HIPK2 pull-down),[3],reduced the interaction between Smad3 and HIPK2 in a dose-dependent manner
